From ChEMBL document CHEMBL1201862, “PubChem BioAssay data set” (2004)
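Following 48 hours of exposure in 96-well plates, responses at five concentrations were used to interpolate endpoints linearly. Here, GI50 denotes the concentration required for 50% inhibition of growth.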 Active and inactive are the calls of the source. Rule as the data show it: active = GI50 up to about 1.1 µM and inactive = higher.

Columns and labels:
Assay in all cases: inhibition of tumour cell growth, NCI panel, 48 h
[1] = test system: COLO 205
[2] = test system: SK-MEL-5
[3] = test system: SNB-19
[4] = test system: LOX IMVI
[5] = test system: UO-31
[6] = test system: NCI-H23
[7] = test system: TK-10
[8] = test system: SF-268
[9] = test system: T47D
[10] = test system: SNB-75
[11] = test system: K562
[12] = test system: HCT-15
[13] = test system: SK-MEL-28
[14] = test system: Malme-3M
[15] = test system: A498
[16] = test system: RPMI-8226
[17] = test system: MDA-MB-231
[18] = test system: OVCAR-5
[19] = test system: NCI-H522
[20] = test system: RXF 393

SMILES	GI50 [1]	GI50 [2]	GI50 [3]	GI50 [4]	GI50 [5]	GI50 [6]	GI50 [7]	GI50 [8]	GI50 [9]	GI50 [10]	GI50 [11]	GI50 [12]	GI50 [13]	GI50 [14]	GI50 [15]	GI50 [16]	GI50 [17]	GI50 [18]	GI50 [19]	GI50 [20]
O=C(/C=C/c1cccs1)c1ccc([N+](=O)[O-])cc1	> 100 µM (inactive)	> 100 µM (inactive)	94.8 µM (inactive)	74.5 µM (inactive)	26.9 µM (inactive)	> 100 µM (inactive)	> 100 µM (inactive)	> 100 µM (inactive)	> 100 µM (inactive)	77.8 µM (inactive)	66.1 µM (inactive)	> 100 µM	> 100 µM (inactive)	> 100 µM (inactive)	> 100 µM (inactive)	49.4 µM (inactive)	> 100 µM (inactive)	–	–	–
COC(=O)C1CCC(=S)N1C(=O)c1ccccc1 (stereo unspecified)	> 100 µM (inactive)	> 100 µM (inactive)	> 100 µM (inactive)	–	> 100 µM (inactive)	> 100 µM (inactive)	> 100 µM (inactive)	> 100 µM (inactive)	> 100 µM (inactive)	> 100 µM (inactive)	4.94 µM (inactive)	> 100 µM	> 100 µM (inactive)	> 100 µM (inactive)	> 100 µM (inactive)	> 100 µM (inactive)	> 100 µM (inactive)	> 100 µM (inactive)	> 100 µM (inactive)	> 100 µM (inactive)
Cn1c2ccccc2c2c3c(c4c5ccccc5n(C)c4c21)C(=O)N(Cc1ccccc1)C3=O	> 100 µM (inactive)	77.4 µM (inactive)	> 100 µM (inactive)	> 100 µM (inactive)	> 100 µM (inactive)	> 100 µM (inactive)	> 100 µM (inactive)	–	> 100 µM (inactive)	> 100 µM (inactive)	> 100 µM (inactive)	> 100 µM	> 100 µM (inactive)	> 100 µM (inactive)	79.1 µM (inactive)	> 100 µM (inactive)	> 100 µM (inactive)	> 100 µM (inactive)	> 100 µM (inactive)	–
C=CCCC1CCCNC1=S (stereo unspecified)	> 100 µM (inactive)	> 100 µM (inactive)	> 100 µM (inactive)	–	> 100 µM (inactive)	> 100 µM (inactive)	> 100 µM (inactive)	> 100 µM (inactive)	> 100 µM (inactive)	> 100 µM (inactive)	> 100 µM (inactive)	> 100 µM	> 100 µM (inactive)	–	> 100 µM (inactive)	> 100 µM (inactive)	> 100 µM (inactive)	> 100 µM (inactive)	> 100 µM (inactive)	> 100 µM (inactive)
CCN(CC)C1=Nc2ccccc2-n2ccnc2C1	> 100 µM (inactive)	> 100 µM (inactive)	> 100 µM (inactive)	> 100 µM (inactive)	> 100 µM (inactive)	> 100 µM (inactive)	> 100 µM (inactive)	> 100 µM (inactive)	> 100 µM (inactive)	70.5 µM (inactive)	> 100 µM (inactive)	> 100 µM	> 100 µM (inactive)	–	> 100 µM (inactive)	–	> 100 µM (inactive)	> 100 µM (inactive)	> 100 µM (inactive)	> 100 µM (inactive)
COc1ccc(/C=C/c2cc(OC)c(OC)c(OC)c2)cc1O[Si](C)(C)C(C)(C)C	15.7 µM (inactive)	1.98 µM (inactive)	3.44 µM (inactive)	–	7.31 µM (inactive)	5.62 µM (inactive)	27.1 µM (inactive)	15.8 µM (inactive)	18.7 µM (inactive)	2.03 µM (inactive)	–	3.33 µM	25.1 µM (inactive)	–	12.7 µM (inactive)	0.0494 µM (active)	5.02 µM (inactive)	33.5 µM (inactive)	1.87 µM (inactive)	3.09 µM (inactive)
CCCCn1c(N)c(-c2nc3ccccc3o2)sc1=S	29.4 µM (inactive)	14 µM (inactive)	41.3 µM (inactive)	–	20 µM (inactive)	15.6 µM (inactive)	18.3 µM (inactive)	16.4 µM (inactive)	19.3 µM (inactive)	–	22.3 µM (inactive)	15.4 µM	18.8 µM (inactive)	16.3 µM (inactive)	31.8 µM (inactive)	21.7 µM (inactive)	16.8 µM (inactive)	24.8 µM (inactive)	14.2 µM (inactive)	36.7 µM (inactive)
Cc1cc(C)n(C2=NS(=O)(=O)c3ccccc3N2C)n1	> 100 µM (inactive)	> 100 µM (inactive)	> 100 µM (inactive)	> 100 µM (inactive)	> 100 µM (inactive)	> 100 µM (inactive)	> 100 µM (inactive)	> 100 µM (inactive)	> 100 µM (inactive)	–	> 100 µM (inactive)	> 100 µM	> 100 µM (inactive)	–	> 100 µM (inactive)	–	> 100 µM (inactive)	> 100 µM (inactive)	> 100 µM (inactive)	> 100 µM (inactive)
Cc1nc(N)c(N2CCN(S(N)(=O)=O)CC2)c(O)n1	> 100 µM (inactive)	–	> 100 µM (inactive)	> 100 µM (inactive)	> 100 µM (inactive)	> 100 µM (inactive)	> 100 µM (inactive)	> 100 µM (inactive)	> 100 µM (inactive)	> 100 µM (inactive)	> 100 µM (inactive)	> 100 µM	> 100 µM (inactive)	> 100 µM (inactive)	> 100 µM (inactive)	> 100 µM (inactive)	> 100 µM (inactive)	> 100 µM (inactive)	> 100 µM (inactive)	–
CC(=O)OCCn1c(Cc2ccc([N+](=O)[O-])cc2)nn(C(C)=O)c1=O	> 100 µM (inactive)	> 100 µM (inactive)	> 100 µM (inactive)	> 100 µM (inactive)	> 100 µM (inactive)	> 100 µM (inactive)	> 100 µM (inactive)	> 100 µM (inactive)	> 100 µM (inactive)	–	> 100 µM (inactive)	> 100 µM	> 100 µM (inactive)	> 100 µM (inactive)	> 100 µM (inactive)	> 100 µM (inactive)	> 100 µM (inactive)	> 100 µM (inactive)	> 100 µM (inactive)	–
CC1(C)CC2(C)CC1CC2(O)c1ccccc1 (stereo unspecified)	> 100 µM (inactive)	> 100 µM (inactive)	> 100 µM (inactive)	–	> 100 µM (inactive)	> 100 µM (inactive)	> 100 µM (inactive)	> 100 µM (inactive)	> 100 µM (inactive)	> 100 µM (inactive)	> 100 µM (inactive)	–	> 100 µM (inactive)	> 100 µM (inactive)	> 100 µM (inactive)	–	> 100 µM (inactive)	> 100 µM (inactive)	> 100 µM (inactive)	> 100 µM (inactive)
O=[PH]1c2ccccc2Nc2ccccc21	> 100 µM (inactive)	> 100 µM (inactive)	> 100 µM (inactive)	> 100 µM (inactive)	–	> 100 µM (inactive)	> 100 µM (inactive)	> 100 µM (inactive)	> 100 µM (inactive)	> 100 µM (inactive)	21.6 µM (inactive)	37.1 µM	> 100 µM (inactive)	80.2 µM (inactive)	21.7 µM (inactive)	–	45.9 µM (inactive)	> 100 µM (inactive)	74.3 µM (inactive)	> 100 µM (inactive)
O=[N+]([O-])c1ccc(N2N=C(c3c(O)ccc4ccccc34)CC2c2ccc(Cl)cc2)c([N+](=O)[O-])c1 (stereo unspecified)	16.1 µM (inactive)	20.4 µM (inactive)	–	–	17.9 µM (inactive)	19.1 µM (inactive)	41 µM (inactive)	29.5 µM (inactive)	32.6 µM (inactive)	12.2 µM (inactive)	5.28 µM (inactive)	14 µM	46.9 µM (inactive)	15.2 µM (inactive)	22.6 µM (inactive)	15.3 µM (inactive)	23.8 µM (inactive)	17.1 µM (inactive)	31.5 µM (inactive)	20 µM (inactive)
O=C(CC(c1ccccc1)C(C(=O)c1ccncc1)C(CC(=O)c1ccncc1)c1ccccc1)c1ccncc1 (stereo unspecified)	> 100 µM (inactive)	> 10 µM (inactive)	39 µM (inactive)	> 100 µM (inactive)	> 100 µM (inactive)	35 µM (inactive)	47.5 µM (inactive)	32.4 µM (inactive)	29.4 µM (inactive)	23.7 µM (inactive)	–	> 100 µM	> 100 µM (inactive)	> 100 µM (inactive)	71.8 µM (inactive)	> 100 µM (inactive)	31.6 µM (inactive)	> 100 µM (inactive)	–	–
C[C@@H]1O[C@@H](O[C@H]2CC[C@]3(C=O)[C@H]4CC[C@]5(C)[C@@H](c6ccc(=O)oc6)CC[C@]5(O)[C@@H]4CC[C@]3(O)C2)[C@H](O)[C@H](O)[C@H]1O[C@@H]1O[C@H](CO)[C@@H](O)[C@H](O)[C@H]1O [HELLEBRIN]	0.0271 µM (active)	0.00841 µM (active)	0.0451 µM (active)	0.0166 µM (active)	0.0186 µM (active)	0.00314 µM (active)	0.00347 µM (active)	0.0375 µM (active)	0.0166 µM (active)	0.0198 µM (active)	0.0218 µM (active)	0.0375 µM	0.0375 µM (active)	–	0.0284 µM (active)	0.0375 µM (active)	0.0379 µM (active)	0.00989 µM (active)	0.00324 µM (active)	–
